According to patent US4603044A, “Hepatocyte Directed Vesicle delivery system” (Technology Unlimited, Inc., priority 1984, dated 1986):

Key:
[1] = system: denervated dogs (diabetic-like state); assay: Blood glucose response to a standardized meal in selectively denervated (diabetic-like) dogs; format: in vivo, dog; details: serotonin 150 ug, intravenously or subcutaneously
Text: In a first study testing the HDV system, a chronic dog model was selected which mimics the early stages of adult onset diabetes mellitus, now referred to as diabetes mellitus Type II. In this model, the diabetes was induced by selective denervation.
This study was divided into three phases, studying the blood glucose response of the animals while in the (1) normal state; (2) diabetic-like state; and (3) successful treatment of the diabetic-like state with subcutaneously administered HDV containing serotonin.
The experimental plan required four normal, healthy mongrel dogs. […] The graph of FIG. 1 is a comparison chart for in vivo testing.
The data for this normal phase are shown in the graph as the line indicated by reference number 10. The data are expressed as a percentage of the fasting blood glucose value taken prior to feeding. Since four dogs were used, the average or mean value for the data is plotted. The data are statistically analyzed, and the variation in the data is shown by the small vertical bars above and below the data points. These bars are the standard error of the mean (SEM).
Following the acquisition of the data described above, the dogs were surgically denervated to induce the diabetic-like state and allowed a week to recover. At this time the study is again repeated, and the data are shown as the line indicated by reference number 12, along with the error bars (SEM). […]

[2] = system: selectively denervated dog; assay: Conversion of hepatic glucose output to uptake in selectively denervated dog, intravenous infusion (biliverdin target); format: in vivo
Method: This dog, when infused with glucose, has portal vein glucose values (mg % measured with a Beckman Glucose Analyzer) that are less than hepatic vein glucose, indicating a hep hepatic glucose output. This is clearly seen in the data presented in the of FIG. 6. The dog is in a state of glucose output for time 15, 30 and 40 minutes. […]

[3] = system: selectively denervated dog; assay: Conversion of hepatic glucose output to uptake in selectively denervated dog, intraduodenal injection; format: in vivo; details: infusion for thirty minutes
Method: In this model, the response of the HDV Serotonin was the conversion of hepatic glucose output to uptake. This conversion was determined by measuring the glucose levels (Beckman Glucose Analyzer) in simultaneously obtained blood samples from the portal and hepatic veins. Sampling was by means of sampling catheters acutely placed under general anesthesia.
The state of hepatic glucose output occur when the level of glucose (mg %) in the hepatic vein exceeds that of the portal vein. Hepatic glucose uptake is the reverse situation.
Data for the experiment are found in the graph of FIG. 5. At "0" minutes, during the control period, the animal is in a state of hepatic glucose output. Because of the selective denervation, the animal stays in output (at 20 and 55 minutes), even though glucose is being infused at a rate of 0.5 g/kg body weight/hour via a mesenteric vein.
The HDV Serotonin is injected into the duodenum (0.8 ml containing 3 ug serotonin/kg) at 60 minutes.

[4] = system: insulin-deficient (diabetic) dog; assay: Conversion of hepatic glucose output to uptake in insulin-deficient (diabetic) dog, intravenous infusion; format: in vivo; details: insulin alone
Text: The response of HDV Insulin to be measured was the conversion of hepatic glucose output to uptake by measuring the glucose (Beckman Glucose Analyzer) levels of simultaneously obtained portal and hepatic vein blood. Diabetes had been induced by the method of Black, (Am. J. Pathol. Vol 98, No. 2, pg 295-305, 1980) and sampling was done via portal and hepatic vein catheters acutely placed under general anesthesia. The dog had been fasted from food for twenty-four hours and taken off of exogenously-administered insulin for forty-eight hours.
The state of hepatic glucose output occurs when the hepatic vein glucose level (in mg%) exceeds the portal vein glucose level. Hepatic glucose uptake is the reverse.
The data for the experiment are found in the graph of FIG. 4. At "0" minutes the dog is in glucose output, and this output is maintained through the "23" and "35" minute samples, even though glucose is infused via a mesenteric vein at a rate of 0.5 g/kg body weight/hour. An intact (non-diabetic) animal would have immediately converted to glucose uptake. This dog's diabetic state is confirmed by its' not converting to glucose uptake at these times.
Following the "35" minutes sampling, HDV Insulin was infused via the left external jugular vein at a rate of 0.03 mU/kg/minute. […] The minimum infusion rate for insulin alone is 6.25 mU/kg/minute. […]

[5] = system: hypophysectomized rats; assay: Growth stimulation in hypophysectomized rats, daily subcutaneous injection; format: in vivo, rat
Method: The HDVGH was administered to rats daily by subcutaneous injection. The control rats required 10 ugGH per day (also given subcutaneously) to maintain normal growth of 1 g weight gain per day. The HDVGH treated rats attained normal growth rates with dosages of HDVGH of 0.15 to 1.5 ug per day. Thus, the HDVGH required only 1/7th to 1/50th of the regular dose of growth hormone. The HDVGH was superpotent and was efficacious when given by subcutaneous injection.

NCCc1c[nH]c2ccc(O)cc12 [serotonin, 5-hydroxytryptamine]
effect of free serotonin on post-meal blood glucose elevation [1]: not effective | rate of free serotonin infusion required [2]: 30 µg/kg/min | intraportal infusion of free serotonin required for the same pharmacologic effect [3]: 10-30 ug/kg body weight/minute

insulin: free hormone insulin, comparator to HDV Insulin
minimum infusion rate for conversion to hepatic glucose uptake [4]: 6.25 mU/kg/minute

B1: GH: free growth hormone given subcutaneously to control rats (protein, UniProt P01244 27-216, looked up)
Somatotropin: FPAMPLSSLFANAVLRAQHLHQLAADTYKEFERAYIPEGQRYSIQNAQAAFCFSETIPAPTGKEEAQQRTDMELLRFSLLLIQSWLGPVQFLSRIFTNSLMFGTSDRVYEKLKDLEEGIQALMQELEDGSPRIGQILKQTYDKFDANMRSDDALLKNYGLLSCFKKDLHKAETYLRVMKCRRFAESSCAF
daily dose to attain/maintain normal growth (1 g weight gain per day) [5]: 10 ug per day
